Columns and labels:
[1] = system: human fibroblast cells (HFF1 cells); test: Cell viability after vacuum desiccation and rehydration on cell adhesion surfaces; type: cell-based; details: dried on standard tissue culture surfaces to about 20% moisture, post-rehydration on coated surface (Tissue Dried)
Experimental: In this set of experiments, human fibroblast cells (HFF1 cells) were desiccated under vacuum at room temperature on various surfaces, and in some cases, in the presence of 0.2 M extracellular trehalose. The fibroblasts were dried to about 20% moisture content. The fibroblasts were then recovered by rehydrating them, placing them into culture, and assessing their viability about 24 hours later, using techniques similar to those described in Example 1.

[2] = Glass transition temperature of extracellular trehalose solution (modulated temperature DSC); type: physicochemical; details: after 18 h of dried storage at 4° C.
Experimental: Thus, the extracellular trehalose solution had vitrified by 18 h. After vitrification (glass formation) of the solution containing the cells had occurred, the cells were able to retain their plasma membrane integrities, even after days to weeks in storage at relatively cooler storage temperatures.

3T3 fibroblasts = test: Long-term stability of membrane integrity during dried storage (exponential decay curve fit); type: cell-based, murine; details: 0.4 M intracellular trehalose
Experimental: The integrity of the plasma membrane of the cells after rehydration was determined using a dual fluorescent assay as follows. SYTO® 13 (Molecular Probes, Inc. Eugene, Oreg.), a permeant live cell nucleic acid dye (25 micromolar), and ethidium bromide (EB; 25 micromolar) were used to differentially stain the cells. The cells were imaged on a fluorescent microscope and analyzed. The membrane integrity (MI) for the cells was calculated as the percentage of SYTO® 13-positive cells in the sample.
The membrane integrity of 3T3 fibroblasts loaded with 0.4 M trehalose intracellularly was measured for periods of time extending out to several weeks (FIG. 5). The fibroblasts were prepared using methods similar to those described in Example 1. The data in FIG. 5 represents experiments where cells were removed from storage, rehydrated, analyzed, and then discarded. The cells were stored at temperatures of −80° C., −20° C., 4° C., 25° C., and 37° C., over CaSO4 desiccant (about 5% relative humidity). The 0.4 M trehalose condition was chosen in this example since previous experiments had shown that cells containing 0.4 M trehalose had high MI values after overnight storage.
Thus, the rate at which the membrane integrity decays appears to be a function of the storage temperature.

[3] = system: NIH 3T3 murine fibroblasts; test: Post-rehydration plasma membrane integrity (SYTO 13/ethidium bromide dual fluorescent assay) of dried cells; type: cell-based; details: for moisture content above which membrane integrity remained relatively stable: hypertonic (528 mOsm/kg) 0.2 M trehalose
Experimental: (§1) NIH 3T3 murine fibroblasts were cultured in Dulbecco's Modified Eagle's medium (DMEM) supplemented with 10% v/v bovine calf serum and 1% v/v penicillin-streptomycin at 37° C. with 10% CO2 in air. At 70% confluence, the cells were trypsinized and resuspended in culture medium. 20 microliter droplets of cells were plated onto sterile 12 mm circular glass cover slips and cultured for 30 min at 37° C. to allow for loose attachment of the fibroblasts to the cover slip. In some cases, poly-L-lysine-coated cover slips were used for attaching the cells to the cover slips. The cover slips were precoated with poly-L-lysine to assure uniform surface characteristics as follows. The cover slips were first prepared by soaking them in aqua regia overnight. The next day, the cover slips were rinsed in 50 mM NaHCO3, then in de-ionized H2O. The cover slips were then baked for at least 3 h at 150° C. The cover slips were removed from the oven and floated in a 1 mg/ml solution of poly-L-lysine for 5 min on each side, then rinsed in de-ionized H2O and air-dried.
(§2) Trehalose was inserted into the fibroblasts as follows. The fibroblasts were washed with 30 microliters of a HEPES-buffered saline solution supplemented with EDTA, followed by three washes with 30 microliters of RPMI-1640. The cells were then porated by exposure to an RPMI-1640 solution containing 25 micrograms/ml of a pore-forming protein, H5 alpha-hemolysin, for 10 min. Intracellular trehalose was inserted into the porated cells by exposure to either a hypertonic (RPMI-1640+0.2 M trehalose; 528 mOsm/kg) or an isotonic (RPMI-1640 diluted in H2O+0.2 M trehalose; 310 mOsm/kg) trehalose solution for 45 min. The pores created by H5 alpha-hemolysin in the fibroblasts were closed by adding 25 micromolar ZnSO4 to the solution. The fibroblasts were then washed in an (H5-free) hypertonic or an isotonic trehalose solution. The osmolality of the solution was measured using a freezing-point depression osmometer. All experimental manipulations were performed at room temperature, unless otherwise indicated.
Techniques used in these experiments for drying cells included evaporative drying (using natural convection) or forced laminar convective flow. The natural convection protocol is generally as follows. The approximate pre-desiccation dimensions of the 20 microliter droplet of media containing the fibroblasts on the glass cover slip was 6 mm diameter×1 mm height. The cover slips were placed in airtight acrylic boxes containing CaSO4/CoCl2 desiccant. The cover slips were stored there for different lengths of time, typically ranging from a few hours to several weeks. […] The moisture content of each droplet was determined gravimetrically from the difference in the droplet weight before and after drying, and was expressed as a percentage of anhydrous dry weight. Anhydrous dry weights were determined by baking a representative droplet overnight at 110° C. and measuring the droplet weights. […] The cells within the droplet were then cultured overnight (˜18 h) and assessed for viability.
The integrity of the plasma membrane of the cells after rehydration was determined using a dual fluorescent assay as follows. […] The cells were imaged on a fluorescent microscope and analyzed. The membrane integrity (MI) for the cells was calculated as the percentage of SYTO® 13-positive cells in the sample. […]

[4] = system: NIH 3T3 murine fibroblasts; test: Post-rehydration cell growth (percentage of viable cells versus undried controls after overnight culture); type: cell-based
Experimental: as §1
as §2, with “All experimental manipulations were performed at room temperature, unless otherwise indicated.” left out
Techniques used in these experiments for drying cells included evaporative drying (using natural convection) or forced laminar convective flow. […] The moisture content of each droplet was determined gravimetrically from the difference in the droplet weight before and after drying, and was expressed as a percentage of anhydrous dry weight. Anhydrous dry weights were determined by baking a representative droplet overnight at 110° C. and measuring the droplet weights. […] The cells within the droplet were then cultured overnight (˜18 h) and assessed for viability.
Following overnight culture, the percentage of viable cells in droplets that were dried and then recovered, compared to undried controls, was used as a measure of cell growth. Viable fibroblasts could be readily identified through their flattening, migratory, and mitotic behavior. […]

## fibronectin
[1]
  cell viability about 24 hours after rehydration: Increases in cell viability

## laminin
[1]
  cell viability about 24 hours after rehydration: Increases in cell viability

## collagen
[1]
  cell viability about 24 hours after rehydration: Increases in cell viability

## OC[C@H]1O[C@H](O[C@H]2O[C@H](CO)[C@@H](O)[C@H](O)[C@H]2O)[C@H](O)[C@@H](O)[C@@H]1O [trehalose]
[2]
  glass transition temperature of the extracellular trehalose: 5 to 10 °C
3T3 fibroblasts; storage at 4° C. over CaSO4 desiccant
  decay time constant of membrane integrity: 54 days
3T3 fibroblasts; storage at 25° C. over CaSO4 desiccant
  decay time constant of membrane integrity: 7.5 days
3T3 fibroblasts; storage at 37° C. over CaSO4 desiccant
  decay time constant of membrane integrity: 2.0 days
3T3 fibroblasts; storage at -20° C. over CaSO4 desiccant
  decay time constant of membrane integrity: 138 days
3T3 fibroblasts; storage at -80° C. over CaSO4 desiccant
  decay time constant of membrane integrity: 147 days
[3]; extracellular trehalose only
  moisture content above which membrane integrity remained relatively stable: greater than 15%
[3]; intracellular and extracellular trehalose
  moisture content above which membrane integrity remained relatively stable: greater than 10%
[3]; hypertonic solution
  membrane integrity (MI) after drying, internal plus external trehalose versus no internal trehalose: higher MI values
[3]; isotonic (310 mOsm/kg) solutions of 0.2 M trehalose
  moisture content below which gross membrane damage was observed: 5-8%
[3]; isotonic trehalose solutions, moisture contents as low as 5-8%
  intact cells (membrane integrity): about 80%
[4]; dried to about 10% moisture content, p=0.004
  percentage of cell growth, isotonic intracellular and extracellular trehalose versus isotonic extracellular trehalose only: significant improvement
[4]; hypertonic trehalose solutions, dried to about 10% moisture content
  cells viable (cell growth) following drying: Less than 20%
[4]; isotonic 0.2 M extracellular trehalose only, dried to 10% moisture content
  percentage of cell growth: less than 30%
[4]; isotonic 0.2 M intracellular and extracellular trehalose, moisture contents greater than about 10%
  cells capable of growth after recovery and overnight culture: Approximately 80%
